Measurements published in patent publication US7964613B2 (Asahi Kasei Pharma Corporation, priority 2007, dated 2011).

Columns and labels:
[1] = biological target: T1, human ROCK1 (Homo sapiens, UniProt Q13464); test: Measurement of Rho kinase inhibitory activity (ELISA of MBS phosphorylation); assay type: biochemical; conditions: human ROCK1, MBS substrate, 100 μM ATP, 30° C. for 10 minutes
T1 construct: His tag (N); host or cells: insect cells (Sf9)
Method: In this test, human ROCK1 was used as Rho kinase, MBS (myosin binding subunit, subunit constituting myosin phosphatase) was used as the substrate of Rho kinase, and an anti-phosphorylated MBS antibody was used for detection of phosphorylation. The activity for inhibiting Rho kinase was determined by measuring phosphorylation of MBS by the Rho kinase by ELISA in the presence of an appropriately diluted test compound. As the Rho kinase used, a recombinant protein (N-terminal His-tagged recombinant human ROCK1 residues (1Met-[…])) was used, which was produced in insect cells (Sf9) using a sequence (1-727), of which activity was confirmed in the paper of Ishizaki et al. (Ishizaki, T. et al., FEBS Letters, 404, pp 118-124, 1997), based on the sequence of human ROCK1 (p 160 ROCK) described in the report of Ishizaki et al. (Ishizaki, T. et al., EMBO J., 15, pp 1885-1893, 1996). Further, as the MBS protein and anti-phosphorylated MBS antibody, those prepared according to the method described in the paper of Ito et al. (Ito, K et al., J. Physiol., 546, pp 823-836, 2003) were used.
A solution of MBS (Asahi Kasei Pharma, lot No, 040814n7-10) diluted with PBS to an appropriate concentration was added to an ELISA plate (Maxisorp, Nunc), and left, stand overnight at 4° C., and then the wells were washed twice with a washing solution (WB, washing buffer, 0.1% Tween 20/PBS). To the wells were added 1% bovine serum albumin (Sigma)/PBS, and left for 1 to 3 hours, and then the wells were washed 5 times with WB to prepare a substrate-immobilized plate. Onto this plate, a reaction mixture (5 mM MgSO4/0.1 M NaCl/20 mM HEPES (pH 7.5)/100 μM ATP/5 mM DTT), a test compound, and appropriately diluted human ROCK1 (Asahi Kasei Pharma, lot No, 030126.120-22) were added, and then reacted at 30° C. for 10 minutes. Then, 0.2 M EDTA (pH 7.5) was added to terminate the reaction, and the wells were washed 5 times with WB. A rabbit anti-phosphorylated MBS antibody solution (Asahi Kasei Pharma, lot No, 122676431) diluted 10,000 times with WB containing 1% bovine serum albumin was added to the wells, and after the reaction for 1 hour, the wells were washed 5 times with WB. Goat anti-rabbit IgG-HRP (Zymed) diluted 1,000 times with WB containing 1% bovine serum albumin was added to the wells as the secondary detection antibody and the mixture was reacted for 1 hour, and then the wells were washed 5 times with WB. An OPD (o-phenylenediamine) solution (1 mg/ml OPD, Sigma), 5.1 g/l of citric acid monohydrate, and 18.4 g/l of Na2HPO4.12H2O were added to the wells to develop color, […] was added 5 minutes later to terminate the color development, and absorbance was measured at 490 nm.
The inhibition ratio was calculated as follows. Inhibition ratio(%)=[…]
Further, the inhibition ratio was calculated with changing the concentration of the test compound, and a compound concentration providing an inhibition ratio of 50% was obtained as IC50.

[2] = tested on: rabbit normal intraocular pressure; test: Intraocular pressure reducing action; assay type: in vivo, Japanese white rabbit; conditions: Oryctolagus cuniculus, topical; 3 mM aqueous solution, 50 μl to the left eye; max IOP reduction (2, 4, 6 hours) / value immediately before administration; read-out: intraocular pressure reducing degree
Method: A Japanese white rabbit having a body weight of about 2 kg was placed in a positioner and naturalized for one week before the experiment. An opthalmologic local anesthesant (Benoxil) was administered to both eyes, and then intraocular pressure was measured by using a tonometer (Classic 30, Solan). A 3 mM aqueous solution of a test compound was administered in a volume of 50 μl to the left eye, and the right eye was not treated (control eye). The intraocular pressure values were measured for the left and right eyes immediately before, and 2, 4 and 6 hours after the administration of the aqueous solution of the test compound, and the difference of the measured values for the left and right eyes was considered an intraocular pressure reduction value of the test medicament at each measurement time. The largest difference of the values for the left and right eyes among the measured values at the measurement times (after 2, 4 and 6 hours) was considered the maximum intraocular pressure reduction value (max ? IOP) of each test medicament. The intraocular pressure reducing degree representing the intraocular pressure reducing action of each test medicament was calculated according to the following formula. Since rabbits show significant daily variation of intraocular pressure, daily variation is added when change of intraocular pressure is measured over time, and the intraocular pressure reducing action may be overestimated. Therefore, we used this calculation method of intraocular pressure reduction value in order to minimize the influence of the variation. Intraocular pressure reducing degree(%)=(max ? IOP/Intraocular pressure value immediately before administration)×100

T1 sequence (Q13464 1-727): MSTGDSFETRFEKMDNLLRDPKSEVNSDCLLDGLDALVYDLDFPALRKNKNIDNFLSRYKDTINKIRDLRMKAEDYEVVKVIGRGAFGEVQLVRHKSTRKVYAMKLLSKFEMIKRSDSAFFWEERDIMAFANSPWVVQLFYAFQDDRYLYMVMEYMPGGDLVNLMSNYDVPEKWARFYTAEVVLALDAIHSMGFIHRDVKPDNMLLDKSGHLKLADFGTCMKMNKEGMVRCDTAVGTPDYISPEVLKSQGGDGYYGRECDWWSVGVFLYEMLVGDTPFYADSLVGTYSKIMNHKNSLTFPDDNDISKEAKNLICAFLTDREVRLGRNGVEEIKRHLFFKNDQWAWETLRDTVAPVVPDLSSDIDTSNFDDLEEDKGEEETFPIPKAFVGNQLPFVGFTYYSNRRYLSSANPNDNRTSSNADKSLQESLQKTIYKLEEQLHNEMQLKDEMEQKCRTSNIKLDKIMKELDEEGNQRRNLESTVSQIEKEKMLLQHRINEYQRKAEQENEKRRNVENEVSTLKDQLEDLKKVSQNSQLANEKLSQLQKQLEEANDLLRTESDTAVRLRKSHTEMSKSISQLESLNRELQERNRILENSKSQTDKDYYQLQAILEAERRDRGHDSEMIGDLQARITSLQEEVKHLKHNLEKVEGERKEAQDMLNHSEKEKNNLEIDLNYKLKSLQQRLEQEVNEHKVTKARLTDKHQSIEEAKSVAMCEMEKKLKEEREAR

| Compound | IC50 [1] | inhibition in vivo at 3000 µM [2] |
| --- | --- | --- |
| N[C@H]1CCN(S(=O)(=O)c2cccc3cncc(Br)c23)C1 [Example 1-1, (S)-3-Amino-1-(4-bromo-5-isoquinolinesulfonyl)pyrrolidine] | < 1 µM | ≥ 20% |
| N[C@@H]1CCN(S(=O)(=O)c2cccc3cncc(Br)c23)C1 [Example 1-2, (R)-3-Amino-1-(4-bromo-5-isoquinolinesulfonyl)pyrrolidine] | < 1 µM | ≥ 20% |
| O=S(=O)(c1cccc2cncc(Br)c12)N1CC[C@H](NCc2ccccc2)C1 [Example 1-6] | < 1 µM |  |
| COc1ccc(CN[C@H]2CCN(S(=O)(=O)c3cccc4cncc(Br)c34)C2)cc1 [Example 1-7] | < 1 µM |  |
| O=S(=O)(c1cccc2cncc(Br)c12)N1CC[C@H](NCc2ccc(O)cc2)C1 [Example 1-11] | < 1 µM |  |
| O=S(=O)(c1cccc2cncc(Br)c12)N1CC[C@H](NCCc2ccccc2)C1 [Example 1-13] | < 1 µM |  |
| O=S(=O)(c1cccc2cncc(Br)c12)N1CC[C@H](NCc2ccoc2)C1 [Example 1-14] | < 1 µM | 5 to 10% |
| Cc1nc(CN[C@H]2CCN(S(=O)(=O)c3cccc4cncc(Br)c34)C2)c[nH]1 [Example 1-19] | 1 to 3 µM | 5 to 10% |
| Cn1cccc1CN[C@H]1CCN(S(=O)(=O)c2cccc3cncc(Br)c23)C1 [Example 1-20] | < 1 µM | 10 to 20% |
| NCCN[C@H]1CCN(S(=O)(=O)c2cccc3cncc(Br)c23)C1 [Example 1-31] | < 1 µM | 10 to 20% |
| O=S(=O)(c1cccc2cncc(Br)c12)N1CC[C@H](NC2CCC(O)CC2)C1 (some centres unmarked) [Example 1-33] | 1 to 3 µM |  |
| O=S(=O)(c1cccc2cncc(Br)c12)N1CC[C@H](NCc2ccc3c(c2)OCCO3)C1 [Example 1-38] | < 1 µM |  |
| N[C@H]1CCN(S(=O)(=O)c2cccc3c(O)ncc(Br)c23)C1 [Example 7-1, (S)-3-Amino-1-(1-hydroxy-4-bromo-5-isoquinolinesulfonyl)pyrrolidine] | < 1 µM | ≥ 20% |
| Cc1cncc2cccc(S(=O)(=O)N3CC[C@@H](N)C3)c12 [Example 8-2, (R)-3-Amino-1-(4-methyl-5-isoquinolinesulfonyl)pyrrolidine] | < 1 µM | ≥ 20% |
| CCN[C@H]1CCN(S(=O)(=O)c2cccc3cncc(C)c23)C1 [Example 8-4] | < 1 µM | 10 to 20% |
| CCCN[C@H]1CCN(S(=O)(=O)c2cccc3cncc(C)c23)C1 [Example 8-5] | < 1 µM |  |
| Cc1cncc2cccc(S(=O)(=O)N3CC[C@H](NCc4ccccc4)C3)c12 [Example 8-6] | < 1 µM |  |
| COc1ccc(CN[C@H]2CCN(S(=O)(=O)c3cccc4cncc(C)c34)C2)cc1 [Example 8-7] | < 1 µM |  |
| Cc1cncc2cccc(S(=O)(=O)N3CC[C@H](NCc4ccc5c(c4)OCO5)C3)c12 [Example 8-8] | < 1 µM |  |
| Cc1cncc2cccc(S(=O)(=O)N3CC[C@H](NCc4ccc([N+](=O)[O-])cc4)C3)c12 [Example 8-9] | 1 to 3 µM |  |
| Cc1ccc(CN[C@H]2CCN(S(=O)(=O)c3cccc4cncc(C)c34)C2)o1 [Example 8-16] | 1 to 3 µM |  |
| Cc1ccc(CN[C@H]2CCN(S(=O)(=O)c3cccc4cncc(C)c34)C2)s1 [Example 8-18] | 1 to 3 µM |  |
| Cc1cncc2cccc(S(=O)(=O)N3CC[C@H](NCc4cccn4C)C3)c12 [Example 8-21] | < 1 µM | 10 to 20% |

| Compound | IC50 [1] | inhibition in vivo at 3000 µM [2] |
| --- | --- | --- |
| Cc1cncc2cccc(S(=O)(=O)N3CC[C@H](NCC4CC4)C3)c12 [Example 8-26] | < 1 µM | 5 to 10% |
| Cc1cncc2cccc(S(=O)(=O)N3CC[C@H](NC(C)C)C3)c12 [Example 8-27] | 1 to 3 µM | 10 to 20% |
| Cc1cncc2cccc(S(=O)(=O)N3CC[C@H](NC4CCC4)C3)c12 [Example 8-28] | < 1 µM | 5 to 10% |
| Cc1cncc2cccc(S(=O)(=O)N3CC[C@H](NC4CCCC4)C3)c12 [Example 8-29] | 1 to 3 µM | 5 to 10% |
| Cc1cncc2cccc(S(=O)(=O)N3CC[C@H](NC4CCCCC4)C3)c12 [Example 8-30] | 1 to 3 µM | 5 to 10% |
| Cc1cncc2cccc(S(=O)(=O)N3CC[C@H](NC4CCOCC4)C3)c12 [Example 8-31] | 1 to 3 µM | 10 to 20% |
| Cc1cncc2cccc(S(=O)(=O)N3CC[C@H](NCCN)C3)c12 [Example 8-32] | < 1 µM | 5 to 10% |
| Cc1cncc2cccc(S(=O)(=O)N3CC[C@H](NCC#N)C3)c12 [Example 8-73] | 1 to 3 µM |  |
| C#Cc1cncc2cccc(S(=O)(=O)N3CC[C@H](NCc4ccco4)C3)c12 [Example 10-14] | 1 to 3 µM |  |
| C#Cc1cncc2cccc(S(=O)(=O)N3CC[C@H](NC4CCOCC4)C3)c12 [Example 10-31] | 1 to 3 µM |  |
| O=S(=O)(c1cccc2cncc(F)c12)N1CC[C@H](NCc2ccc3c(c2)OCO3)C1 [Example 18-8] | < 1 µM |  |
| Cc1ccc(CN[C@H]2CCN(S(=O)(=O)c3cccc4cncc(F)c34)C2)o1 [Example 18-16] | 1 to 3 µM |  |
| CCN[C@H]1CCN(S(=O)(=O)c2cccc3cncc(Cl)c23)C1 [Example 19-4] | 1 to 3 µM |  |
| O=S(=O)(c1cccc2cncc(Cl)c12)N1CC[C@H](NCc2ccc3c(c2)OCO3)C1 [Example 19-8] | < 1 µM |  |
| O=S(=O)(c1cccc2cncc(Cl)c12)N1CC[C@H](NCc2ccco2)C1 [Example 19-14] | 1 to 3 µM |  |
| O=S(=O)(c1cccc2cncc(Cl)c12)N1CC[C@H](NCc2cccs2)C1 [Example 19-17] | 1 to 3 µM |  |
| Cn1cccc1CN[C@H]1CCN(S(=O)(=O)c2cccc3cncc(Cl)c23)C1 [Example 19-21] | 1 to 3 µM |  |
| Nc1ncc(Br)c2c(S(=O)(=O)N3CC[C@H](N)C3)cccc12 [Example 41-1, (S)-3-Amino-1-(1-amino-4-bromo-5-isoquinolinesulfonyl)pyrrolidine] | < 1 µM |  |
| NCC1CCN(S(=O)(=O)c2cccc3cncc(Cl)c23)C1 (centres unmarked) [Example 44, 3-(Aminomethyl)-1-(4-chloro-5-isoquinolinesulfonyl)pyrrolidine] | < 1 µM |  |
| N[C@H]1CCN(S(=O)(=O)c2cccc3cncc(C(F)(F)F)c23)C1 [Example 47-1, (S)-3-Amino-1-(4-trifluoromethyl-5-isoquinolinesulfonyl)pyrrolidine] | 1 to 3 µM |  |
| CS(=O)(=O)N[C@H]1CCN(S(=O)(=O)c2cccc3cncc(Cl)c23)C1 [Example 50-1, (S)-3-(Methanesulfonylamino)-1-(4-chloro-5-isoquinolinesulfonyl)pyrrolidine] | 1 to 3 µM |  |
| NCC1CCN(S(=O)(=O)c2cccc3cncc(Cl)c23)CC1 [Example 52, 4-(Aminomethyl)-1-(4-chloro-5-isoquinolinesulfonyl)piperidine] | < 1 µM |  |
